Where two headings read alike, the source gives them in different places.
Experiments:
Assay type in all cases: biochemical
tyrosinase = assay: Tyrosinase inhibitory activity experiment (L-tyrosine, 405 nm); conditions: 96-well plate, PBS, L-tyrosine substrate, 37 °C 30 min; kojic acid positive control
Procedure: In a 96-well plate, group A was added 80 μL of 0.1 mol/L PBS, 50 μL of solvent (solvent used to dissolve the sample: DMSO) and 50 μL of tyrosinase as a blank group (n = 2); group B was added 130 μL of 0.1 mol/L PBS and 50 μL of solvent as blank background group (n = 2); group C was added with 80 μL of 0.1 mol/L PBS, 50 μL of the sample (standard solution dissolved in DMSO to the concentration of 1.0 mg/mL) and 50 μL of tyrosinase as the experimental group (n = 2); group D were added 130 μL of 0.1 mol/L PBS and 50 μL of the sample as experimental background group (n = 2); finally, 20 μL of substrate (L-tyrosine) was added to each well to trigger the reaction, and the 96-well plate was further incubated at 37 °C.

acetylcholinesterase = acetylcholinesterase (Homo sapiens, UniProt P22303); assay: biochemical
acetylcholinesterase, sequence (P22303 32-614, species assumed): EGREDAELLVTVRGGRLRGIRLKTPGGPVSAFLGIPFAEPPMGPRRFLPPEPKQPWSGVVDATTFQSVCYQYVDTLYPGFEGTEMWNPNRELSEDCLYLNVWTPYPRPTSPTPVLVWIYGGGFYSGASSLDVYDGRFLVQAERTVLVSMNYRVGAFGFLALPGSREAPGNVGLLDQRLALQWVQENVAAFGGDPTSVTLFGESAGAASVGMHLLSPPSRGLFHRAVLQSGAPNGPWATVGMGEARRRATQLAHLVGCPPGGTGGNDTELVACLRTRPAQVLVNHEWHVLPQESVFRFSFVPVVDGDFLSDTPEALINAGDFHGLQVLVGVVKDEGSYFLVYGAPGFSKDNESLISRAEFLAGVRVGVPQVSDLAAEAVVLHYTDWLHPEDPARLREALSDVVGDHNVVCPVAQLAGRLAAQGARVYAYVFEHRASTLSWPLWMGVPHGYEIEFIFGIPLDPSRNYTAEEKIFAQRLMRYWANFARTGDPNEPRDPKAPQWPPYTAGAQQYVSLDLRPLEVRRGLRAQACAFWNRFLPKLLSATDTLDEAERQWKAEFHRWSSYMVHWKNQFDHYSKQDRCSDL

α-glucosidase = assay: α-Glucosidase inhibitory activity experiment (PNPG, 405 nm); conditions: 96-well plate, PBS pH 7.4, 37 °C, PNPG substrate; acarbose positive control
Procedure: In a 96-well plate, group A was added 20 μL of 0.1 mol/L PBS (phosphate buffered saline (pH 7.4)), 20 μL of the sample (standard solution dissolved in DMSO to the concentration of 1.0 mg/mL) and 20 μL of α-glucosidase as a sample group (n = 3); Group B was added 40 μL of 0.1 mol/L PBS and 20 μL of the sample as the control group (n = 3); Group C was added 40 μL 0.1 mol/L PBS and 20 μL α-glucosidase as blank group (n = 3); after incubation for 15 min at 37 °C, then 2.5 mmol/L PNPG glycoside was added to each well and incubated at 37 °C. The reaction was stopped by adding 80 μL of a 0.2 mol/L Na2CO3 solution to each well after 15 min.

[1] = 96-well plate, PBS, ACTI and DTNB, 37 °C 20 min, huperzine A positive control, read-out: Acetylcholinesterase inhibitory activity IC50 (converted)

Structure (SMILES)	Tyrosinase inhibitory activity IC50 (tyrosinase)	IC50 (acetylcholinesterase)	α-glucosidase activity inhibition IC50 (α-glucosidase)	IC50 (acetylcholinesterase; [1])
O=c1cc(-c2ccc(O)c(O)c2)oc2cc(O)cc(O)c12 [Compound 1, luteolin]	1643.11 µg/mL	1660 µM		
OCC1OC(OC2C(CO)OC(OC3C(CO)OC(OC4(CO)OC(CO)C(O)C4O)C(O)C3O)C(O)C2O)C(O)C(O)C1O [Compound 12, O-α-D-glucopyranosyl-(1→4)-α-D-glucopyranosyl-(1→4)-α-D-glucopyranosyl-(1→2)-β-D-fructofuranoside]	1750.08 µg/mL		444.88 µg/mL	761 µM
C[C@@H]1O[C@@H](OC[C@H]2O[C@@H](Oc3c(-c4ccc(O)c(O)c4)oc4cc(O)cc(O)c4c3=O)[C@H](O)[C@@H](O)[C@@H]2O)[C@H](O)[C@H](O)[C@H]1O [Compound 7, rutin]		806 µM		
CC#CC#CC#CC#CC#CC(CO)O[C@@H]1O[C@H](CO)[C@@H](O)[C@H](O)[C@H]1O (stereo partly drawn) [Compound 10, 2-β-D-glucopyranosyloxy-1-hydroxytrideca-3,5,7,9,11-pentayne]			492.11 µg/mL	1450 µM
O=c1c(O)c(-c2ccc(O)cc2)oc2cc(O)cc(O)c12 [Compound 3, kaempferol]		1760 µM		
COC1OC(CNC2C(OC)OC(CO)C(O)C2O)C(O)C(O)C1O [Compound 11, α-D-Alt-p-OMe (N2-6) α-D-Gle-p-OMe]	302.42 µg/mL		318.44 µg/mL	1400 µM
CC(C)[C@@H](C)/C=C/[C@@H](C)[C@H]1CC[C@@H]2[C@]1(C)CC[C@H]1[C@]23C=C[C@]2(C[C@@H](O)CC[C@]12C)OO3 [Compound 8, ergosterol peroxide]	202.37 µg/mL		452.50 µg/mL	1170 µM
